In patent US8039493B2, “Biaryl sulfonamide derivatives” (Hoffmann-La Roche Inc., priority 2008, dated 2011):

Assays:
[1] = target: T1, human LXR beta (Homo sapiens, UniProt P55055); assay: Radioligand binding assay (scintillation proximity), LXR beta-LBD; details: LXR beta-LBD on SPA beads, read-out: LXRbeta Binding IC50
T1 construct: human LXR beta (aa 155 to 460); made in house; host or cells: E. coli BL21 (pLysS)
T1 sequence (P55055 155-460): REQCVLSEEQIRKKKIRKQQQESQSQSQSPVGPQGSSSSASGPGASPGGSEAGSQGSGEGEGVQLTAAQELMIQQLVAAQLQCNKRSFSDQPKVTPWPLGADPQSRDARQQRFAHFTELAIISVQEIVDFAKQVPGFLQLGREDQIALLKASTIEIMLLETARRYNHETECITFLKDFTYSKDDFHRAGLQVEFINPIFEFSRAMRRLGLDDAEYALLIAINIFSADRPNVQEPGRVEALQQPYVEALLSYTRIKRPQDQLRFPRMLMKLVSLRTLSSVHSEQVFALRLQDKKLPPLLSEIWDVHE
Experimental: (§1) The following tests were carried out in order to determine the activity of the compounds of the present invention. […] Mammalian expression vectors were constructed to express full-length human LXR alpha and LXR beta. […] To accomplish this, the portions of the sequences encoding the LBDs were amplified from the full-length clones by PCR and then subcloned into the plasmid vectors.
(§2) Induction, expression, and purification of LBD proteins were performed in E. coli strain BL21 (pLysS) cells by standard methods (Ref: Current Protocols in Molecular Biology, Wiley Press, edited by Ausubel et al).
(§3) Radioligand Binding Assay
(§4) LXR alpha and LXR beta receptor binding were assayed in buffer consisting of 50 mM HEPES, pH 7.4, 10 mM NaCl, 5 mM MgCl2. For each 96-well reaction, 500 ng of LXRα-LBD or 700 ng of LXR beta-LBD proteins were bound to 80 μg or 40 μg SPA beads respectively, in a final volume of 50 μl by shaking. The resulting slurry was incubated for 1 h at RT and centrifuged for 2 min at 1300×g. The supernatant containing unbound protein was removed, and the semi-dry pellet containing the receptor-coated beads was re-suspended in 50 μl of buffer. Radioligand (eg. 100,000 dpm of (N-(2,2,2-trifluoroethyl)-N-[4-(2,2,2-trifluoro-1-hydroxy-1-trifluoromethylethyl)-phenyl]-benzenesulfonamide)) was added, and the reaction incubated at RT for 1 h in the presence of test compounds, and then scintillation proximity counting was performed. All binding assays were performed in 96-well plates and the amount of bound ligand was measured on a Packard TopCount using OptiPlates (Packard). Dose response curves were measured within a range of concentration from 10^−10 M to 10^−4 M.

[2] = target: T2, human LXR alpha (Homo sapiens, UniProt Q13133); assay: Radioligand binding assay (scintillation proximity), LXRα-LBD; details: LXRα-LBD on SPA beads, read-out: LXRalpha Binding IC50
T2 construct: human LXR alpha (aa 164 to 447); made in house; host or cells: E. coli BL21 (pLysS)
T2 sequence (Q13133 164-447): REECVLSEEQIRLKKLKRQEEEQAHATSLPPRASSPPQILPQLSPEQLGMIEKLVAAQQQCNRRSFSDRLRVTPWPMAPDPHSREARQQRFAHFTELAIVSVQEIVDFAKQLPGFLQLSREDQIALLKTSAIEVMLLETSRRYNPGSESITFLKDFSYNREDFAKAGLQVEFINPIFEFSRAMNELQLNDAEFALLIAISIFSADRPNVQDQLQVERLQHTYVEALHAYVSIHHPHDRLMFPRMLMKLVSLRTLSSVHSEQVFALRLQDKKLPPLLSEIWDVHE
Experimental: as §1, §2, §3, §4

Compound	IC50 [1] [nM]	IC50 [2] [nM]
CS(=O)(=O)c1cccc(-c2ccc(CN(Cc3ccccc3)S(=O)(=O)c3ccccc3C(F)(F)F)s2)c1 [Example 1, N-Benzyl-N-[5-(3-methanesulfonyl-phenyl)-thiophen-2-ylmethyl]-2-trifluoromethyl-benzenesulfonamide]	165	205
CS(=O)(=O)Nc1cccc(-c2ccc(CN(Cc3ccccc3)S(=O)(=O)c3ccccc3C(F)(F)F)s2)c1 [Example 2, N-Benzyl-N-[5-(3-methanesulfonylamino-phenyl)-thiophen-2-ylmethyl]-2-trifluoromethyl-benzenesulfonamide]	126	170
CS(=O)(=O)c1cccc(-c2nnc(CN(Cc3ccccc3)S(=O)(=O)c3ccccc3C(F)(F)F)o2)c1 [Example 3, N-Benzyl-N-[5-(3-methanesulfonyl-phenyl)-[1,3,4]oxadiazol-2-ylmethyl]-2-trifluoromethyl-benzenesulfonamide]	5410	5720
CS(=O)(=O)c1cccc(-c2ccc(CN(Cc3ccccc3)S(=O)(=O)c3ccccc3Cl)s2)c1 [Example 4, N-Benzyl-2-chloro-N-[5-(3-methanesulfonyl-phenyl)-thiophen-2-ylmethyl]-benzenesulfonamide]	123	685
CS(=O)(=O)c1cccc(-c2ccc(CN(C(=O)c3ccccc3)S(=O)(=O)c3ccccc3Cl)s2)c1 [Example 6, N-Benzoyl-2-chloro-N-[5-(3-methanesulfonyl-phenyl)-thiophen-2-ylmethyl]-benzenesulfonamide]	46	1570
CS(=O)(=O)c1cccc(-c2ccc(CN(Cc3ccccc3)S(=O)(=O)c3cccc(Cl)c3)s2)c1 [Example 7, N-Benzyl-3-chloro-N-[5-(3-methanesulfonyl-phenyl)-thiophen-2-ylmethyl]-benzenesulfonamide]	1510	4280
CS(=O)(=O)c1cccc(-c2ccc(CN(C(=O)c3ccccc3)S(=O)(=O)c3cccc(Cl)c3)s2)c1 [Example 9, N-Benzoyl-3-chloro-N-[5-(3-methanesulfonyl-phenyl)-thiophen-2-ylmethyl]-benzenesulfonamide]	980	2140
CC(C)CN(Cc1ccc(-c2cccc(S(C)(=O)=O)c2)s1)S(C)(=O)=O [Example 15, N-Isobutyl-N-[5-(3-methanesulfonyl-phenyl)-thiophen-2-ylmethyl]-methanesulfonamide]	7060	48700
CCS(=O)(=O)N(Cc1ccc(-c2cccc(S(C)(=O)=O)c2)s1)CC(C)C [Example 16, Ethanesulfonic acid isobutyl-[5-(3-methanesulfonyl-phenyl)-thiophen-2-ylmethyl]-amide]	2860	25000
CC(C)CN(Cc1ccc(-c2cccc(S(C)(=O)=O)c2)s1)S(=O)(=O)C(F)(F)F [Example 20, Trifluoro-N-isobutyl-N-[5-(3-methanesulfonyl-phenyl)-thiophen-2-ylmethyl]-methanesulfonamide]	270	3750
CC(C)CN(Cc1ccc(-c2cccc(S(C)(=O)=O)c2)s1)S(=O)(=O)c1cccs1 [Example 21, Thiophene-2-sulfonic acid isobutyl-[5-(3-methanesulfonyl-phenyl)-thiophen-2-ylmethyl]-amide]	140	605
COc1ccc(Cl)cc1S(=O)(=O)N(Cc1ccc(-c2cccc(S(C)(=O)=O)c2)s1)CC(C)C [Example 23, 5-Chloro-N-isobutyl-N-[5-(3-methanesulfonyl-phenyl)-thiophen-2-ylmethyl]-2-methoxy-benzenesulfonamide]	19	1520
Cc1ccc(F)cc1S(=O)(=O)N(Cc1ccc(-c2cccc(S(C)(=O)=O)c2)s1)CC(C)C [Example 24, 5-Fluoro-N-isobutyl-N-[5-(3-methanesulfonyl-phenyl)-thiophen-2-ylmethyl]-2-methyl-benzenesulfonamide]	28.5	165
CCCCS(=O)(=O)N(Cc1ccc(-c2cccc(S(C)(=O)=O)c2)s1)CC(C)C [Example 25, Butane-1-sulfonic acid isobutyl-[5-(3-methanesulfonyl-phenyl)-thiophen-2-ylmethyl]-amide]	80	2750

Next, values leading:

IC50 [1] [nM]	IC50 [2] [nM]	Compound
102	1170	CC(C)CN(Cc1ccc(-c2cccc(S(C)(=O)=O)c2)s1)S(=O)(=O)c1ccccc1Cl [Example 5, 2-Chloro-N-isobutyl-N-[5-(3-methanesulfonyl-phenyl)-thiophen-2-ylmethyl]-benzenesulfonamide]
560	925	CC(C)CN(Cc1ccc(-c2cccc(S(C)(=O)=O)c2)s1)S(=O)(=O)c1cccc(Cl)c1 [Example 8, 3-Chloro-N-isobutyl-N-[5-(3-methanesulfonyl-phenyl)-thiophen-2-ylmethyl]-benzenesulfonamide]
56.5	2700	CS(=O)(=O)c1cccc(-c2ncc(CN(Cc3ccccc3)S(=O)(=O)c3ccccc3Cl)s2)c1 [Example 10, N-Benzyl-2-chloro-N-[2-(3-methanesulfonyl-phenyl)-thiazol-5-ylmethyl]-benzenesulfonamide]
170	8780	CC(C)CN(Cc1cnc(-c2cccc(S(C)(=O)=O)c2)s1)S(=O)(=O)c1ccccc1Cl [Example 11, 2-Chloro-N-isobutyl-N-[2-(3-methanesulfonyl-phenyl)-thiazol-5-ylmethyl]-benzenesulfonamide]
120	27300	CS(=O)(=O)c1cccc(-c2ncc(CN(C(=O)c3ccccc3)S(=O)(=O)c3ccccc3Cl)s2)c1 [Example 12, N-Benzoyl-2-chloro-N-[2-(3-methanesulfonyl-phenyl)-thiazol-5-ylmethyl]-benzenesulfonamide]
40.5	3490	CC(C)CN(Cc1ccc(-c2cccc(S(C)(=O)=O)c2)o1)S(=O)(=O)c1ccccc1Cl [Example 13, 2-Chloro-N-isobutyl-N-[5-(3-methanesulfonyl-phenyl)-furan-2-ylmethyl]-benzenesulfonamide]
2.2	68	CC(C)CN(Cc1cc(-c2cccc(S(C)(=O)=O)c2)cs1)S(=O)(=O)c1ccccc1Cl [Example 14, 2-Chloro-N-isobutyl-N-[4-(3-methanesulfonyl-phenyl)-thiophen-2-ylmethyl]-benzenesulfonamide]
28	2210	CC(C)CN(Cc1ccc(-c2cccc(S(C)(=O)=O)c2)s1)S(=O)(=O)c1ccccc1F [Example 17, 2-Fluoro-N-isobutyl-N-[5-(3-methanesulfonyl-phenyl)-thiophen-2-ylmethyl]-benzenesulfonamide]
82	1440	CC(C)CN(Cc1ccc(-c2cccc(S(C)(=O)=O)c2)s1)S(=O)(=O)c1c(Cl)cccc1Cl [Example 18, 2,6-Dichloro-N-isobutyl-N-[5-(3-methanesulfonyl-phenyl)-thiophen-2-ylmethyl]-benzenesulfonamide]
59	2630	COC(=O)c1ccccc1S(=O)(=O)N(Cc1ccc(-c2cccc(S(C)(=O)=O)c2)s1)CC(C)C [Example 19, 2-{Isobutyl-[5-(3-methanesulfonyl-phenyl)-thiophen-2-ylmethyl]-sulfamoyl}-benzoic acid methyl ester]
22.5	1380	CC(C)CN(Cc1ccc(-c2cccc(S(C)(=O)=O)c2)s1)S(=O)(=O)c1cccc(Cl)c1F [Example 22, 3-Chloro-2-fluoro-N-isobutyl-N-[5-(3-methanesulfonyl-phenyl)-thiophen-2-ylmethyl]-benzenesulfonamide]
98	15900	CC(C)CN(Cc1ccc(-c2cccc(S(C)(=O)=O)c2)s1)S(=O)(=O)c1ccccc1C#N [Example 26, 2-Cyano-N-isobutyl-N-[5-(3-methanesulfonyl-phenyl)-thiophen-2-ylmethyl]-benzenesulfonamide]
